Measurements published in article PMC12337661, “PIEZO1 mechanical insensitivity in generalized lymphatic dysplasia with the potential for pharmacological rescue” (iScience, 2025).

Biological target: T1, WT mPIEZO1 (Mus musculus, UniProt E2JF22)
T1 construct: expressed in transfected cells
Assay: Long substance exposure and hypo-osmolality protocol Ca2+ assay
Type: cell-based
Settings: 10 µM
Procedure: For intracellular Ca^2+ assays, cells were plated at 80–90% confluence in 96-well plates 24 h prior to recordings (6–8 × 10^4 cells per well). […] Cells were washed with SBS and incubated at room temperature for 20 min prior to recordings. Equal volumes of 2x concentrated compounds were injected to test for acute channel activation. Pre-incubation with compounds occurred during the 20 min prior to recordings. To expose cell membranes to hypo-osmolality, an equal volume of hypotonic SBS (containing only 35 mM NaCl) was injected onto the cells. Measurements were made on a fluorescence plate reader (Flexstation III, Molecular Devices) at room temperature (21 ± 2°C). Fura-2 was excited at 340 nm and 380 nm and emitted light collected at 510 nm, with measurements shown as the change in fluorescence (F) ratio (ΔF340/380).
SI Figure S5: Hypo-osm ol al it y test in the Ca2+ assay, referred to in the main paper
(a) Typical 96-well plate mean ± s.e.m. data for changes in intracellular Ca2+ evoked by hypotonic (35 mM NaCl) or normotonic (135 mM NaCl) medium for WT- or Empty vector-transfected cells in increasing concentrations of Yoda1 as indicated and colour -coded on t he right (representative of n = 3-6 independent experiments). […]

T1 sequence (E2JF22 whole entry): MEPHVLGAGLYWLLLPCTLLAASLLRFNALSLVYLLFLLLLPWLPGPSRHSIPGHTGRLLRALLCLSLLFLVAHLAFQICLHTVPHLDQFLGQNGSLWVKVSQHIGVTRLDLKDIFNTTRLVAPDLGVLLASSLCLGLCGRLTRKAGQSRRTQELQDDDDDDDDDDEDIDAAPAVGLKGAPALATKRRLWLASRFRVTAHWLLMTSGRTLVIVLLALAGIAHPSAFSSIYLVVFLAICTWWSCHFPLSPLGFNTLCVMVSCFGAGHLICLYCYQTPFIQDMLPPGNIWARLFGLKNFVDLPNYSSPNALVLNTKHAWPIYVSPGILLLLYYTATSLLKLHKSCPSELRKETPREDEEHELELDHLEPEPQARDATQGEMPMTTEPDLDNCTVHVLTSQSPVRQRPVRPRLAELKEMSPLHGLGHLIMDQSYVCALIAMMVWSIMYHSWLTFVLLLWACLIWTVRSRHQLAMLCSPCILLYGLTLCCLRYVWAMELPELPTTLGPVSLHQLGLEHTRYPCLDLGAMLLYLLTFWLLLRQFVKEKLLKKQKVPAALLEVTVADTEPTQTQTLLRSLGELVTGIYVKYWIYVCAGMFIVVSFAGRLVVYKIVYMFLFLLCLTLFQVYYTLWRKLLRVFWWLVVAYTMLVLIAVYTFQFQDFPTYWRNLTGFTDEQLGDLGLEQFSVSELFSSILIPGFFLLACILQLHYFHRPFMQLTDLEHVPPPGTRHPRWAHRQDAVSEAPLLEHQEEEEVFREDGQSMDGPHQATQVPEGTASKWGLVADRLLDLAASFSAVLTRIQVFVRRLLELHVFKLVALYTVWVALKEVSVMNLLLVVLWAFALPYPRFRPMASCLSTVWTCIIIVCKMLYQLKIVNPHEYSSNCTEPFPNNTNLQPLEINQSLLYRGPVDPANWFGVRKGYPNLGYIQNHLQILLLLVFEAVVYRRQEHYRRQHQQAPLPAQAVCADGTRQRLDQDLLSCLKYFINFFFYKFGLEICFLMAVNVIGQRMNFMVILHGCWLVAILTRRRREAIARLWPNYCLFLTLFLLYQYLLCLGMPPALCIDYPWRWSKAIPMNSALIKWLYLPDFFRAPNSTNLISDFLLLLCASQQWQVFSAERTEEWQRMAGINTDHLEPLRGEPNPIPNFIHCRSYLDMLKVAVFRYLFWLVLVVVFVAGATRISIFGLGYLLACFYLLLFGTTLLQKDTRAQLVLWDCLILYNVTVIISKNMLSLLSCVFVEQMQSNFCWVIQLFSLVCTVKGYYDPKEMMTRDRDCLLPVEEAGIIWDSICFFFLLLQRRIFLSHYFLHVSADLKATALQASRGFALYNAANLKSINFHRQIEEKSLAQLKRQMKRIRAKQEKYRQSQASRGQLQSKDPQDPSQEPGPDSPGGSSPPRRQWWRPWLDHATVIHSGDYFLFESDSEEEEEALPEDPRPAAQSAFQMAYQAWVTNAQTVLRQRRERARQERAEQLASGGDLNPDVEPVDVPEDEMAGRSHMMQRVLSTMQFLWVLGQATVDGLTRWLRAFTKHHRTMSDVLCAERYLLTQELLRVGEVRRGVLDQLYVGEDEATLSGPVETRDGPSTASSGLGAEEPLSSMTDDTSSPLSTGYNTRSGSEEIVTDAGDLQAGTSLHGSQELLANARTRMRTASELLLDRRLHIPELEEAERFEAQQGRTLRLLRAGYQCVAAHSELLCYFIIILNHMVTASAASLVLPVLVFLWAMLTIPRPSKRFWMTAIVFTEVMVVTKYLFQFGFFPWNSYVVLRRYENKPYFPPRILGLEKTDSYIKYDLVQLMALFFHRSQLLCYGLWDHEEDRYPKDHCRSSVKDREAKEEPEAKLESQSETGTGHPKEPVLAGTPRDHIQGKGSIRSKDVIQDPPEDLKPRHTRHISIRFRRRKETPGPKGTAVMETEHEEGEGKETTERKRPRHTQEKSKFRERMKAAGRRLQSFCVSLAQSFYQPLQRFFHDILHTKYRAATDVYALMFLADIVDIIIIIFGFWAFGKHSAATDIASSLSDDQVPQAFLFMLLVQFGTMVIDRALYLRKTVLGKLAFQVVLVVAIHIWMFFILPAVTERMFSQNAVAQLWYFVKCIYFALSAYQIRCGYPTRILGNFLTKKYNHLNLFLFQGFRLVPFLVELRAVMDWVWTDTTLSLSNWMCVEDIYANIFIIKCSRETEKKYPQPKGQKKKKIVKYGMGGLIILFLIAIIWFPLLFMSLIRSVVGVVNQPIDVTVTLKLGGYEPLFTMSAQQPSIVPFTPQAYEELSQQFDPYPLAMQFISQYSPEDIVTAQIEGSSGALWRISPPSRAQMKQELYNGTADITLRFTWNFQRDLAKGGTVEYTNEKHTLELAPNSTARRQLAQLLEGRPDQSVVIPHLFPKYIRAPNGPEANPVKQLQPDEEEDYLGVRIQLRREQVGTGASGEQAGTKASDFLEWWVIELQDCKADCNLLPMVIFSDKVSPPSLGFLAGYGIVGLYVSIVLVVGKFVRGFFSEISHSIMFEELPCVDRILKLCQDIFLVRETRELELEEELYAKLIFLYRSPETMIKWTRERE

## Nc1ccc(-c2nnc(SCc3c(Cl)cccc3Cl)s2)cc1 [KC146, 4-(5-((2,6-dichlorobenzyl)thio)-1,3,4-thiadiazol-2-yl)aniline]
  assay interference: caused a fluorescence artefact
